Experimental findings from ChEMBL document CHEMBL1687809, “Novel apramycin resistance gene apmA in bovine and porcine methicillin-resistant Staphylococcus aureus ST398 isolates” (2011) are described below.

Format in all cases: functional
Test [1] concerns Staphylococcus aureus. In words: Antimicrobial activity against Staphylococcus aureus RN4220 carrying pAFS11-apmA, erm(B), tet(L), dfrK, aadD resistance genes by CLSI M31-A3 method.
Test [2] relates to Staphylococcus aureus. As to the kind of experiment: Antimicrobial activity against Staphylococcus aureus RN4220 by CLSI M31-A3 method.
The subject of test [3] is Staphylococcus aureus. In words: Antimicrobial activity against methicillin-resistant Staphylococcus aureus ST398 isolate 11 containing apmA, erm(B), tet(L), tet(M), tet(K), dfrK, aadD, mecA, blaZ resistance genes by CLSI M31-A3 method.

≈ marks a conversion by molar mass, not a printed value.

`Cc1onc(-c2ccccc2)c1C(=O)N[C@@H]1C(=O)N2[C@@H]1SC(C)(C)[C@@H]2C(=O)O` [OXACILLIN]: the MIC in test [1] is 0.12 µg/mL (≈ 0.299 µM); in test [2], 0.12 µg/mL (≈ 0.299 µM); in test [3], 16 µg/mL (≈ 39.9 µM).
In the case of `CN[C@@H]1[C@@H](O[C@H]2O[C@H](CO)[C@@H](N)[C@H](O)[C@H]2O)OC2C[C@@H](N)[C@@H](O[C@H]3[C@H](O)[C@@H](O)[C@H](N)C[C@@H]3N)OC2[C@@H]1O` (some centres not stated) [APRAMYCIN], the MIC in test [1] was at least 128 µg/mL; in test [2], 1 µg/mL (≈ 1.85 µM); in test [3], at least 128 µg/mL.
Turning to `NC[C@@H]1O[C@H](O[C@H]2[C@@H](O)[C@H](O[C@@H]3[C@@H](O)[C@H](N)C[C@H](N)[C@H]3O[C@H]3O[C@H](CN)[C@@H](O)[C@H](O)[C@H]3N)O[C@@H]2CO)[C@H](N)[C@@H](O)[C@@H]1O` [FRAMYCETIN], the MIC in test [1] was 32 µg/mL (≈ 52.1 µM); in test [2] it was at most 1 µg/mL; in test [3] it was 128 µg/mL (≈ 208 µM).
As for `CN(C)[C@@H]1C(O)=C(C(N)=O)C(=O)[C@@]2(O)C(O)=C3C(=O)c4c(O)cccc4[C@@](C)(O)[C@H]3C[C@@H]12` [TETRACYCLINE], the MIC turned out to be 32 µg/mL (≈ 72 µM) in test [1], 0.12 µg/mL (≈ 0.27 µM) in test [2] and 64 µg/mL (≈ 144 µM) in test [3].
As for `COc1cc(Cc2cnc(N)nc2N)cc(OC)c1OC` [TRIMETHOPRIM], the MIC in test [1] was at least 256 µg/mL; in test [2], 0.5 µg/mL (≈ 1.72 µM); in test [3], at least 256 µg/mL.
Consider `CCC[C@@H]1C[C@@H](C(=O)N[C@@H]([C@H]2O[C@H](SC)[C@H](O)[C@@H](O)[C@H]2O)[C@H](C)Cl)N(C)C1` [CLINDAMYCIN], for which the figures for the MIC in test [1], in test [2] and in test [3] were at least 128 µg/mL, at most 0.12 µg/mL and at least 128 µg/mL, respectively.
As to `NC[C@H]1O[C@H](O[C@H]2[C@H](O)[C@@H](O[C@H]3O[C@H](CO)[C@@H](O)[C@H](N)[C@H]3O)[C@H](N)C[C@@H]2N)[C@H](O)[C@@H](O)[C@@H]1O` [KANAMYCIN], the minimum inhibitory concentration (MIC) was 64 µg/mL (≈ 132 µM) in test [1], 4 µg/mL (≈ 8.26 µM) in test [2] and at least 128 µg/mL in test [3].
For `CC[C@H]1OC(=O)[C@H](C)[C@@H](O[C@H]2C[C@@](C)(OC)[C@@H](O)[C@H](C)O2)[C@H](C)[C@@H](O[C@@H]2O[C@H](C)C[C@H](N(C)C)[C@H]2O)[C@](C)(O)C[C@@H](C)C(=O)[C@H](C)[C@@H](O)[C@]1(C)O` [ERYTHROMYCIN] the same measures were at least 64 µg/mL, 0.12 µg/mL (≈ 0.164 µM) and at least 64 µg/mL.
In the case of GENTAMICIN, the MIC was determined as 8 µg/mL in test [1], 0.25 µg/mL in test [2] and 8 µg/mL in test [3].

As a reminder, the MIC is the least concentration at which growth counts as inhibited. A higher MIC goes with a less susceptible organism.
